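These data come from cells grown in 96-well plates and exposed to compound for 48 hours at five concentrations. At the TGI there is no net growth.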
tested on: DU-145 prostate; assay: NCI-60 cell line screen, 48 h

**Q.** Which TGI does the source give for CCCC(=O)N(C(=O)CCC)C1=C(Cl)C(=O)c2ccccc2C1=O here?
**A.** The TGI was 45.1 µM.

**Q.** Which TGI does the source give for Cc1ccc(C)c2c1C/C(=C\c1ccccc1C(=O)O)C2=O here?
**A.** Its TGI is > 100 µM.

**Q.** For COc1ccc(-c2cn3c(nc4ccccc43)c(/C=C/c3cccs3)n2)cc1, which TGI is on record?
**A.** The TGI was > 100 µM.

**Q.** With O=C(Nc1c(Cl)cccc1Cl)c1c(Cl)c(Cl)c(Cl)c(Cl)c1-c1nc2ccccc2[nH]1 as the molecule, how does the TGI read?
**A.** Its TGI is > 100 µM.

**Q.** How did the TGI turn out when CCC1=C(C)C(=O)N/C1=C\c1[nH]c(C)c([C@H](C)CCN)c1C was run?
**A.** Its TGI is 32.5 µM.

tested on: SF-539 CNS; assay: NCI-60 cell line screen, 48 h

**Q.** For CCCC(=O)N(C(=O)CCC)C1=C(Cl)C(=O)c2ccccc2C1=O, which TGI is on record?
**A.** Its TGI is 15.4 µM.

**Q.** With Cc1ccc(C)c2c1C/C(=C\c1ccccc1C(=O)O)C2=O as the molecule, how does the TGI read?
**A.** Its TGI is 97.7 µM.

**Q.** For COc1ccc(-c2cn3c(nc4ccccc43)c(/C=C/c3cccs3)n2)cc1, which TGI is on record?
**A.** The TGI was > 100 µM.

**Q.** O=C(Nc1c(Cl)cccc1Cl)c1c(Cl)c(Cl)c(Cl)c(Cl)c1-c1nc2ccccc2[nH]1 was tested. Which TGI did it give?
**A.** Its TGI is > 100 µM.

**Q.** For CCC1=C(C)C(=O)N/C1=C\c1[nH]c(C)c([C@H](C)CCN)c1C, which TGI is on record?
**A.** Its TGI is 15.5 µM.

tested on: HOP-92 NSCLC; assay: NCI-60 cell line screen, 48 h

**Q.** How did the TGI turn out when CCCC(=O)N(C(=O)CCC)C1=C(Cl)C(=O)c2ccccc2C1=O was run?
**A.** The TGI was 45 µM.

**Q.** For Cc1ccc(C)c2c1C/C(=C\c1ccccc1C(=O)O)C2=O, which TGI is on record?
**A.** The TGI was > 100 µM.

**Q.** For COc1ccc(-c2cn3c(nc4ccccc43)c(/C=C/c3cccs3)n2)cc1, which TGI is on record?
**A.** The TGI was > 100 µM.

**Q.** With O=C(Nc1c(Cl)cccc1Cl)c1c(Cl)c(Cl)c(Cl)c(Cl)c1-c1nc2ccccc2[nH]1 as the molecule, how does the TGI read?
**A.** Its TGI is > 100 µM.

**Q.** With CCC1=C(C)C(=O)N/C1=C\c1[nH]c(C)c([C@H](C)CCN)c1C as the molecule, how does the TGI read?
**A.** The TGI was 28.6 µM.

tested on: SF-268 CNS; assay: NCI-60 cell line screen, 48 h

**Q.** How did the TGI turn out when CCCC(=O)N(C(=O)CCC)C1=C(Cl)C(=O)c2ccccc2C1=O was run?
**A.** The TGI was > 45.2 µM.

**Q.** With Cc1ccc(C)c2c1C/C(=C\c1ccccc1C(=O)O)C2=O as the molecule, how does the TGI read?
**A.** The TGI was > 100 µM.

**Q.** COc1ccc(-c2cn3c(nc4ccccc43)c(/C=C/c3cccs3)n2)cc1 was tested. Which TGI did it give?
**A.** Its TGI is > 100 µM.

**Q.** How did the TGI turn out when O=C(Nc1c(Cl)cccc1Cl)c1c(Cl)c(Cl)c(Cl)c(Cl)c1-c1nc2ccccc2[nH]1 was run?
**A.** The TGI was > 100 µM.

**Q.** Which TGI does the source give for CCC1=C(C)C(=O)N/C1=C\c1[nH]c(C)c([C@H](C)CCN)c1C here?
**A.** Its TGI is 30.4 µM.

tested on: UACC-62 melanoma; assay: NCI-60 cell line screen, 48 h

**Q.** For CCCC(=O)N(C(=O)CCC)C1=C(Cl)C(=O)c2ccccc2C1=O, which TGI is on record?
**A.** The TGI was 11.1 µM.

**Q.** How did the TGI turn out when Cc1ccc(C)c2c1C/C(=C\c1ccccc1C(=O)O)C2=O was run?
**A.** Its TGI is > 100 µM.

**Q.** With COc1ccc(-c2cn3c(nc4ccccc43)c(/C=C/c3cccs3)n2)cc1 as the molecule, how does the TGI read?
**A.** The TGI was > 100 µM.

**Q.** With O=C(Nc1c(Cl)cccc1Cl)c1c(Cl)c(Cl)c(Cl)c(Cl)c1-c1nc2ccccc2[nH]1 as the molecule, how does the TGI read?
**A.** The TGI was > 100 µM.

**Q.** CCC1=C(C)C(=O)N/C1=C\c1[nH]c(C)c([C@H](C)CCN)c1C was tested. Which TGI did it give?
**A.** The TGI was 31.5 µM.

tested on: 786-0 renal; assay: NCI-60 cell line screen, 48 h

**Q.** How did the TGI turn out when CCCC(=O)N(C(=O)CCC)C1=C(Cl)C(=O)c2ccccc2C1=O was run?
**A.** The TGI was 30.8 µM.

**Q.** How did the TGI turn out when Cc1ccc(C)c2c1C/C(=C\c1ccccc1C(=O)O)C2=O was run?
**A.** Its TGI is > 100 µM.

**Q.** COc1ccc(-c2cn3c(nc4ccccc43)c(/C=C/c3cccs3)n2)cc1 was tested. Which TGI did it give?
**A.** The TGI was > 100 µM.

**Q.** With O=C(Nc1c(Cl)cccc1Cl)c1c(Cl)c(Cl)c(Cl)c(Cl)c1-c1nc2ccccc2[nH]1 as the molecule, how does the TGI read?
**A.** Its TGI is > 100 µM.

**Q.** CCC1=C(C)C(=O)N/C1=C\c1[nH]c(C)c([C@H](C)CCN)c1C was tested. Which TGI did it give?
**A.** Its TGI is 28.9 µM.

tested on: HS 578T breast; assay: NCI-60 cell line screen, 48 h

**Q.** For CCCC(=O)N(C(=O)CCC)C1=C(Cl)C(=O)c2ccccc2C1=O, which TGI is on record?
**A.** The TGI was 79.7 µM.

**Q.** How did the TGI turn out when Cc1ccc(C)c2c1C/C(=C\c1ccccc1C(=O)O)C2=O was run?
**A.** The TGI was > 100 µM.

**Q.** Which TGI does the source give for COc1ccc(-c2cn3c(nc4ccccc43)c(/C=C/c3cccs3)n2)cc1 here?
**A.** The TGI was > 100 µM.

**Q.** Which TGI does the source give for O=C(Nc1c(Cl)cccc1Cl)c1c(Cl)c(Cl)c(Cl)c(Cl)c1-c1nc2ccccc2[nH]1 here?
**A.** The TGI was > 100 µM.

**Q.** With CCC1=C(C)C(=O)N/C1=C\c1[nH]c(C)c([C@H](C)CCN)c1C as the molecule, how does the TGI read?
**A.** Its TGI is 28.6 µM.

tested on: PC-3 prostate; assay: NCI-60 cell line screen, 48 h

**Q.** How did the TGI turn out when CCCC(=O)N(C(=O)CCC)C1=C(Cl)C(=O)c2ccccc2C1=O was run?
**A.** The TGI was 40 µM.

**Q.** Cc1ccc(C)c2c1C/C(=C\c1ccccc1C(=O)O)C2=O was tested. Which TGI did it give?
**A.** The TGI was > 100 µM.

**Q.** For O=C(Nc1c(Cl)cccc1Cl)c1c(Cl)c(Cl)c(Cl)c(Cl)c1-c1nc2ccccc2[nH]1, which TGI is on record?
**A.** Its TGI is > 100 µM.

tested on: NCI-H522 lung; assay: NCI-60 cell line screen, 48 h

**Q.** Cc1ccc(C)c2c1C/C(=C\c1ccccc1C(=O)O)C2=O was tested. Which TGI did it give?
**A.** The TGI was > 100 µM.

**Q.** How did the TGI turn out when O=C(Nc1c(Cl)cccc1Cl)c1c(Cl)c(Cl)c(Cl)c(Cl)c1-c1nc2ccccc2[nH]1 was run?
**A.** The TGI was > 100 µM.

**Q.** CCC1=C(C)C(=O)N/C1=C\c1[nH]c(C)c([C@H](C)CCN)c1C was tested. Which TGI did it give?
**A.** The TGI was 24.4 µM.

tested on: HCC-2998 colon; assay: NCI-60 cell line screen, 48 h

**Q.** How did the TGI turn out when CCCC(=O)N(C(=O)CCC)C1=C(Cl)C(=O)c2ccccc2C1=O was run?
**A.** Its TGI is 16.4 µM.

**Q.** How did the TGI turn out when Cc1ccc(C)c2c1C/C(=C\c1ccccc1C(=O)O)C2=O was run?
**A.** Its TGI is > 100 µM.

**Q.** With COc1ccc(-c2cn3c(nc4ccccc43)c(/C=C/c3cccs3)n2)cc1 as the molecule, how does the TGI read?
**A.** Its TGI is > 100 µM.

**Q.** For O=C(Nc1c(Cl)cccc1Cl)c1c(Cl)c(Cl)c(Cl)c(Cl)c1-c1nc2ccccc2[nH]1, which TGI is on record?
**A.** Its TGI is > 100 µM.

tested on: UACC-257 melanoma; assay: NCI-60 cell line screen, 48 h

**Q.** With CCCC(=O)N(C(=O)CCC)C1=C(Cl)C(=O)c2ccccc2C1=O as the molecule, how does the TGI read?
**A.** Its TGI is 11.6 µM.

**Q.** For Cc1ccc(C)c2c1C/C(=C\c1ccccc1C(=O)O)C2=O, which TGI is on record?
**A.** Its TGI is > 100 µM.

**Q.** Which TGI does the source give for COc1ccc(-c2cn3c(nc4ccccc43)c(/C=C/c3cccs3)n2)cc1 here?
**A.** The TGI was > 100 µM.

**Q.** For O=C(Nc1c(Cl)cccc1Cl)c1c(Cl)c(Cl)c(Cl)c(Cl)c1-c1nc2ccccc2[nH]1, which TGI is on record?
**A.** Its TGI is > 100 µM.

tested on: MOLT-4 leukemia; assay: NCI-60 cell line screen, 48 h

**Q.** CCCC(=O)N(C(=O)CCC)C1=C(Cl)C(=O)c2ccccc2C1=O was tested. Which TGI did it give?
**A.** The TGI was 10.7 µM.

**Q.** For Cc1ccc(C)c2c1C/C(=C\c1ccccc1C(=O)O)C2=O, which TGI is on record?
**A.** The TGI was > 100 µM.

**Q.** O=C(Nc1c(Cl)cccc1Cl)c1c(Cl)c(Cl)c(Cl)c(Cl)c1-c1nc2ccccc2[nH]1 was tested. Which TGI did it give?
**A.** The TGI was > 100 µM.

**Q.** With CCC1=C(C)C(=O)N/C1=C\c1[nH]c(C)c([C@H](C)CCN)c1C as the molecule, how does the TGI read?
**A.** The TGI was > 100 µM.

tested on: A498 renal; assay: NCI-60 cell line screen, 48 h

**Q.** How did the TGI turn out when CCCC(=O)N(C(=O)CCC)C1=C(Cl)C(=O)c2ccccc2C1=O was run?
**A.** The TGI was 37.6 µM.

**Q.** How did the TGI turn out when Cc1ccc(C)c2c1C/C(=C\c1ccccc1C(=O)O)C2=O was run?
**A.** Its TGI is > 100 µM.

**Q.** For COc1ccc(-c2cn3c(nc4ccccc43)c(/C=C/c3cccs3)n2)cc1, which TGI is on record?
**A.** The TGI was > 100 µM.

**Q.** Which TGI does the source give for O=C(Nc1c(Cl)cccc1Cl)c1c(Cl)c(Cl)c(Cl)c(Cl)c1-c1nc2ccccc2[nH]1 here?
**A.** The TGI was 54.6 µM.

**Q.** How did the TGI turn out when CCC1=C(C)C(=O)N/C1=C\c1[nH]c(C)c([C@H](C)CCN)c1C was run?
**A.** Its TGI is 33.4 µM.

tested on: HL-60(TB) leukemia; assay: NCI-60 cell line screen, 48 h

**Q.** For Cc1ccc(C)c2c1C/C(=C\c1ccccc1C(=O)O)C2=O, which TGI is on record?
**A.** The TGI was > 100 µM.

**Q.** How did the TGI turn out when COc1ccc(-c2cn3c(nc4ccccc43)c(/C=C/c3cccs3)n2)cc1 was run?
**A.** Its TGI is 89.7 µM.

**Q.** O=C(Nc1c(Cl)cccc1Cl)c1c(Cl)c(Cl)c(Cl)c(Cl)c1-c1nc2ccccc2[nH]1 was tested. Which TGI did it give?
**A.** The TGI was > 100 µM.

**Q.** For CCC1=C(C)C(=O)N/C1=C\c1[nH]c(C)c([C@H](C)CCN)c1C, which TGI is on record?
**A.** The TGI was 42.4 µM.

tested on: COLO 205 colon; assay: NCI-60 cell line screen, 48 h

**Q.** How did the TGI turn out when CCCC(=O)N(C(=O)CCC)C1=C(Cl)C(=O)c2ccccc2C1=O was run?
**A.** The TGI was > 23.3 µM.

**Q.** For Cc1ccc(C)c2c1C/C(=C\c1ccccc1C(=O)O)C2=O, which TGI is on record?
**A.** Its TGI is > 100 µM.

**Q.** With COc1ccc(-c2cn3c(nc4ccccc43)c(/C=C/c3cccs3)n2)cc1 as the molecule, how does the TGI read?
**A.** Its TGI is > 100 µM.

**Q.** O=C(Nc1c(Cl)cccc1Cl)c1c(Cl)c(Cl)c(Cl)c(Cl)c1-c1nc2ccccc2[nH]1 was tested. Which TGI did it give?
**A.** Its TGI is > 100 µM.

**Q.** With CCC1=C(C)C(=O)N/C1=C\c1[nH]c(C)c([C@H](C)CCN)c1C as the molecule, how does the TGI read?
**A.** The TGI was 31.1 µM.

From PubChem BioAssay (NCI)
